Experimental data taken from patent US7939521B2, “2-arylpropionic acid derivatives and pharmaceutical compositions containing them” (DompePHA.R.MA S.p.A., priority 2004, dated 2011).

Columns and labels:
[1] = tested on: C5a induced human PMN chemotaxis; conditions: previously reported; cited from earlier work
[2] = tested on: C5a induced human PMN chemotaxis; assay: C5a induced chemotaxis of human PMNs (microchamber assay); format: cell-based; conditions: for inhibitory activity on C5a induced PMN chemotaxis at high drug concentration: c=10^−6M; for C5a (10^−6M): drug concentration 10^−6M, PMN chemotaxis, Table 1, n.a. = not active
[3] = tested on: CXCL8 induced human PMN chemotaxis; assay: IL-8 (CXCL8) induced PMN chemotaxis; format: cell-based; conditions: drug concentration 10^−8M, Table 1
[4] = tested on: C5a induced human PMN chemotaxis; assay: C5a induced chemotaxis of human PMNs (microchamber assay); format: cell-based; conditions: for inhibitory activity on C5a: compounds lacking the additional hydrogen bond acceptor group; for inhibition at 0.1 µM / inhibition at 0.01 µM: Homo sapiens, read-out: % inhibition C5a induced PMN migration; for inhibition at 0.1 µM: drug concentration: 10^−7 M (footnote a); for inhibition at 0.01 µM: drug concentration: 10^−8 M (footnote b)
Procedure: The compounds of the invention of formula (I) were evaluated in vitro for their ability to inhibit chemotaxis of polymorphonucleate leukocytes (hereinafter referred to as PMNs) and monocytes induced by the fractions of the complement C5a and C5a-desArg. For this purpose, to isolate the PMNs from heparinized human blood, taken from healthy adult volunteers, mononucleates were removed by means of sedimentation on dextran (according to the procedure disclosed by W. J. Ming et al., J. Immunol., 138, 1469, 1987) and red blood cells by a hypotonic solution. The cell vitality was calculated by exclusion with Trypan blue, whilst the ratio of the circulating polymorphonucleates was estimated on the cytocentrifugate after staining with Diff Quick.
Human recombinant fractions C5a and C5a-desArg (Sigma) were used as stimulating agents in the chemotaxis experiments, giving practically identical results.
The lyophilized C5a was dissolved in a volume of HBSS containing 0.2% bovin serum albumin BSA so thus to obtain a stock solution having a concentration of 10^−5 M to be diluted in HBSS to a concentration of 10^−9 M, for the chemotaxis assays.
In the chemotaxis experiments, the PMNs were incubated with the compounds of the invention of formula (I) for 15′ at 37° C. in an atmosphere containing 5% CO2. The chemotactic activity of the C5a was evaluated on human circulating polymorphonucleates (PMNs) resuspended in HBSS at a concentration of 1.5×10^6 PMNs per mL.
During the chemotaxis assay (according to W. Falket et al., J. Immunol. Methods, 33, 239, 1980) PVP-free filters with a porosity of 5 μm and microchambers suitable for replication were used.
The compounds of the invention in formula (I) were evaluated at a concentration ranging between 10^−7 and 10^−10 M; for this purpose they were added, at the same concentration, both to the lower pores and the upper pores of the microchamber. The wells in the lower part contain the solution of C5a or the simple carrier, those in the upper part contain the suspension of PMNs.
Inhibition of C5a-induced chemotactic activity by the individual compounds of the invention of formula (I) was evaluated by incubating the microchamber for the chemotaxis for 60 min at 37° C. in an atmosphere containing 5% CO2.
By way of example, the inhibition data of the chemotaxis of PMN (concentration range between 10^−7 and 10^−8 M) of some representative compounds of the invention are reported in Table 2.

Structure (SMILES) | inhibition at 0.1 µM [4] | inhibition at 0.01 µM [4] | further results
C[C@@H](C(N)=O)c1cccc(C(=O)c2ccccc2)c1 [(R)-2-(3-benzoylphenyl)propionamide] |  |  | activity on the C5a induced PMN chemotaxis [1]: negligible activity; inhibitory activity on C5a induced PMN chemotaxis at high drug concentration [2]: moderate inhibitory activity; C5a (10^−6M) [2]: 30 ± 2; IL-8 (10^−8M) [3]: 37 ± 7
CC(C)c1cccc([C@@H](C)C(N)=O)c1 [(R)-2-(3-isopropylphenyl)propionamide, reference compound] |  |  | inhibitory activity on C5a [4]: do not exhibit any inhibitory activity; IL-8 (10^−8M) [3]: 60 ± 5
CC(C)Cc1ccc([C@@H](C)C(N)=O)cc1 [(R)-2-(4-isobutylphenyl)propionamide, reference compound] |  |  | inhibitory activity on C5a [4]: do not exhibit any inhibitory activity; IL-8 (10^−8M) [3]: 57 ± 12
CC(C)C(=O)c1cccc([C@@H](C)C(N)=O)c1 [Example 1, (R)-2-[3-(isobutyryl)phenyl]propionamide] | 50 ± 7% |  | 
C[C@@H](C(N)=O)c1cccc(C(=O)C2CCCC2)c1 [Example 2, (R)-2-[3-(cyclopentanecarbonyl)phenyl]propionamide] | 59 ± 16% |  | 
C[C@@H](C(N)=O)c1cccc(C(=O)c2ccco2)c1 [Example 3] | 65 ± 6% |  | 
C[C@@H](C(N)=O)c1cccc(C(=O)c2cc3ccccc3o2)c1 [Example 4, (R)-2-[3-(2-benzofuran-2-carbonyl)phenyl]propionamide] |  | 55 ± 7% | 
C[C@@H](C(N)=O)c1cccc(C(=O)c2nccs2)c1 [Example 5, (R)-2-[3-(thiazole-2-ylcarbonyl)phenyl]propionamide] |  | 31 ± 7% | 
C[C@@H](C(N)=O)c1cccc(C(=O)c2ncco2)c1 [Example 6, (R)-2-[3-(1,3-oxazol-2-ylcarbonyl)phenyl]propionamide] |  | 26 ± 6% | 
C[C@@H](C(N)=O)c1cccc(C(=O)Nc2c(Cl)cccc2Cl)c1 [Example 7, 3-((R)-1-carbamoylethyl)-N-(2,6-dichlorophenyl)benzamide] | 57 ± 8% |  | 
Cc1cccc(C)c1NC(=O)c1cccc([C@@H](C)C(N)=O)c1 [Example 8, 3-((R)-1-carbamoylethyl)-N-(2,6-dimethylphenyl)benzamide] | 65 ± 10% |  | 
C[C@@H](C(N)=O)c1cccc(C(=O)Nc2ncccc2Cl)c1 [Example 9, 3-((R)-1-carbamoylethyl)-N-(3-chloropyridin-2-yl)benzamide] | 40 ± 2% |  | 
COc1ccccc1Oc1cccc([C@@H](C)C(N)=O)c1 [Example 10, (R)-2-[3-(2-methoxyphenoxy)phenyl]propionamide] |  | 55 ± 6% | 
C[C@@H](C(N)=O)c1cccc(Nc2ccccc2Cl)c1 [Example 11, (R)-2-[3-(2-chlorophenylamino)phenyl]propionamide] | 42 ± 5% |  | 
COc1ccccc1Nc1cccc([C@@H](C)C(N)=O)c1 [Example 12, (R)-2-[3-(2-methoxyphenylamino)phenyl]propionamide] | 60 ± 8% |  | 
C[C@@H](C(N)=O)c1cccc(Nc2ccccn2)c1 [Example 13, (R)-2-[3-(pyridin-2-ylamino)phenyl]propionamide] | 38 ± 3% |  | 
C[C@@H](C(N)=O)c1cccc(-c2ncco2)c1 [Example 14] | 63 ± 9% |  | 
C[C@@H](C(N)=O)c1cccc(-c2ccco2)c1 [Example 15] | 41 ± 7% |  | 
C[C@@H](C(N)=O)c1ccc2c(c1)NC(=O)CC2 [Example 16, (R)-2-(oxo-1,2,3,4-tetrahydroquinolin-7-yl)propionamide] |  | 45 ± 10% | 
C[C@@H](C(N)=O)c1cccc(S(=O)(=O)c2ccccc2)c1 [Example 17, (R)-2-(3-benzenesulfonylphenyl)propionamide] | 54 ± 7% |  | 

Structure (SMILES) | inhibition at 0.1 µM [4] | inhibition at 0.01 µM [4] | further results
CC(=O)Nc1cccc(C(C)C(N)=O)c1 (stereo not drawn) [Example 18, 2-(3-acetylamino)phenyl propionamide] | 83 ± 2% |  | 
CC(C(N)=O)c1cccc(NC(=O)c2ccccc2)c1 (stereo not drawn) [Example 19, 2-(3-benzoylamino)phenyl propionamide] | 34 ± 11% |  | 
C[C@@H](C(=O)NS(C)(=O)=O)c1cccc(C(=O)C2CCCC2)c1 [Example 20, N—[(R)-2-(3-cyclopentanecarbonylphenyl)propionyl]methanesulfonamide] | 22 ± 2% |  | 
C[C@@H](C(=O)NS(C)(=O)=O)c1cccc(C(=O)c2ccco2)c1 [Example 21] |  | 61 ± 15% | 
Cc1ccc(C(=O)c2cccc([C@@H](C)C(=O)NS(C)(=O)=O)c2)o1 [Example 22] |  | 53 ± 6% | 
C[C@@H](C(=O)NS(C)(=O)=O)c1cccc(C(=O)c2cccs2)c1 [Example 23] | 37 ± 11% |  | 
C[C@@H](C(=O)NS(C)(=O)=O)c1cccc(C(=O)c2cc3ccccc3o2)c1 [Example 24] |  |  | % inhibition C5a induced PMN migration ([4]; drug concentration not marked): 53 ± 5%
C[C@@H](C(=O)NS(C)(=O)=O)c1cccc(C(=O)c2ncco2)c1 [Example 25] | 38 ± 8% |  | 
C[C@@H](C(=O)Nc1ccccn1)c1cccc(C(=O)c2ccco2)c1 [Example 26, (R)-2-[3-(furan-2-carbonyl)phenyl]-N-pyrid-2-yl propionamide] |  | 45 ± 9% | 
C[C@@H](C(=O)Nc1nccs1)c1cccc(C(=O)c2ccco2)c1 [Example 27, (R)-2-[3-(furan-2-carbonyl)phenyl]-N-(2H-thiazol-2-yl)propionamide] |  | 60 ± 5% | 
C[C@@H](C(=O)Nc1nc(C(F)(F)F)cs1)c1cccc(C(=O)c2ccco2)c1 [Example 28, (R)-2-[3-(furan-2-carbonyl)phenyl]-N-(4-trifluoromethyl-2H-thiazol-2-yl)propionamide] |  | 49 ± 9% | 
C[C@@H](C(=O)Nc1nc(C(F)(F)F)cs1)c1cccc(C(=O)c2cc3ccccc3o2)c1 [Example 29, (R)-2-[3-(benzofuran-2-carbonyl)phenyl]-N-(4-trifluoromethyl-2H-thiazol-2-yl)propionamide] | 40 ± 12% |  | 
C[C@@H](C(=O)Nc1ccccn1)c1cccc(C(=O)C2CCCC2)c1 [Example 30, (R)-2-(3-cyclopentanecarbonylphenyl)-N-pyrid-2-ylpropionamide] |  | 51 ± 5% | 
C[C@@H](C(=O)NO)c1cccc(C(=O)c2ccco2)c1 [Example 31, (R)-2-[3-(furan-2-carbonyl)phenyl]-N-hydroxypropionamide] |  | 70 ± 5% | 
C[C@@H](C(=O)NO)c1cccc(C(=O)c2nccs2)c1 [Example 32, (R)-2-[3-(thiazole-2-carbonyl)phenyl]-N-hydroxypropionamide] |  | 30 ± 2% | 
CC(NC(=O)[C@H](C)c1cccc(C(=O)c2ccco2)c1)C(=O)O (stereo partly drawn) [Example 33, 2-{(R)-2-[3-(furan-2-carbonyl)phenyl]propionylamino}propionic acid] | 40 ± 5% |  | 
C[C@@H](C(=O)NCC(=O)O)c1cccc(C(=O)c2ccco2)c1 [Example 34] | 51 ± 7% |  | 
C[C@@H](C(=O)NS(C)(=O)=O)c1cccc(C(=O)c2ccccc2)c1 [N-[(R)-2-(3-benzoylphenyl)propionyl]methanesulfonamide] |  |  | activity on the C5a induced PMN chemotaxis [1]: negligible activity; inhibitory activity on C5a induced PMN chemotaxis at high drug concentration [2]: moderate inhibitory activity; C5a (10^−6M) [2]: 20 ± 5; IL-8 (10^−8M) [3]: 38 ± 5
CC(C)Cc1ccc([C@@H](C)C(=O)NS(C)(=O)=O)cc1 [N-[(R)-2-(4-isobutylphenyl)propionyl]methanesulfonamide, reference compound] |  |  | inhibitory activity on C5a [4]: do not exhibit any inhibitory activity; IL-8 (10^−8M) [3]: 65 ± 5
